According to patent US11458189B2, “Cytoprotective drugs” (BALMES TRANSPLANTATION, priority 2017, dated 2022):
Starred links: 1 amine or outer side, 2 acyl side, 3 side chain; linkers in the order of their positions; H or OH if unused. Positions of bridges follow the written chain, without caps; N, C: chain ends. Non-standard residues stand in square brackets, D forms with d. Residues, ends and D or L forms follow the SMILES beside them. *: point of attachment. hTyr(3S-OH,4S-OH,3'-OSO3H) = N[C@H](C(=O)O)[C@H](O)[C@@H](O)c1ccc(O)c(OS(=O)(=O)O)c1; Orn(4R-OH,5R-OH) = O=C([C@H](C[C@@H](O)[C@@H](O)N[*:3])N[*:1])[*:2]; Pro(3S-OH,4S-Me) = C[C@H]1CN[C@H](C(=O)O)[C@H]1O; X1 = CCCCCOc1ccc(-c2cc(-c3ccc(C(=O)*)cc3)no2)cc1; Gln(3R-OH) = NC(=O)C[C@@H](O)[C@H](N)C(=O)O; Hyp = O=C(O)[C@@H]1C[C@@H](O)CN1

System: Human Renal Glomerular Endothelial Cells (HRGEC)
Experiment: Oxygen and glucose deprivation followed by replenishment, cell survival (calcein AM), HRGEC
Type: cell-based
Protocol: Anidulafungin and micafungin were tested on Human Renal Glomerular Endothelial Cells (HRGEC, Innoprot P10665), on Human Renal Proximal Tubular Epithelial Cells (HRPTEpiC, Innoprot P10662), on Human Astrocytes (HA, caltag SC-1800), on Human Cardiac Microvascular Endothelial Cells (HCMEC, Caltag SC-6000), on Human Hepatic Sinusoidal Endothelial Cells (HHSEC, Caltag SC-5000), on Rat Primary Kidney Glomerular Endothelial cells (Cellbiologics, RN-6014G) and on Bovine Brain Microvascular Endothelial Cells (BBMEC, Caltag SC-B100).
In a first phase, these isolated, purified and cryopreserved cells are thawed and multiplied according to the supplier's recommendations in T75 or T175 flasks pre-coated with 2 μg of fibronectin/[…] (CORNING) for HRGEC, HCMEC, HHSEC and BBMEC, or 2 μg poly-L-lysin/cm^2 (Caltag SC-0403) for HRPTEpiC and HA, or 15 mL/flask 175 cm^2 gelatin-based solution (Cellbiologics) in the presence of endothelial cell supplemented growth medium ECM (P60104, INNOPROT, Caltag, SC-1001) for HRGEC, HCMEC, HHSEC, RPKGEC or BBMEC, or astrocyte cell supplemented growth medium AM (Caltag SC-1801) for HA or epithelial cell supplemented growth medium EpiCM (P60106, INNOPROT) for HRPTEpiC, at 37° C. under 5% CO2 and saturated humidity until their confluency. They are then harvested by trypsinization according to the method described by the supplier for exactly 5 minutes and then reseeded in new flasks a maximum of three times.
To carry out the oxygen and glucose deprivation test followed by their replenishment, the cells will be seeded in 96-well black plates with transparent flat bottom (GREINER). Once a sufficient number of cells has been obtained to allow seeding of 2000 to 15000 cells per well of 96-well plates depending on the cell type, the cells are seeded in these 96-well plates previously coated with an extracellular matrix as listed above for the flasks. The cells are cultured for 5 to 8 days according to the cell type, in the presence of the same growth medium as in the flask as described above except for HRGEC and HRPTEpiC for which DMEM (DUTSCHER) with 1 g/L of supplemented glucose is used, at 37° C. under 5% CO2 and saturated humidity to obtain confluency.
On the first day of oxygen and glucose deprivation, (5th, 6th, 7th or 8th day of culture), the culture conditions are drastically changed. The medium of all plates is removed and replaced by DMEM (DUTSCHER) medium without glucose and supplemented only with 1% penicillin-streptomycin (DUTSCHER). Anidulafungin or micafungin dissolved in dimethyl sulfoxide (DMSO) is then added to each well at the desired concentration, resulting in a maximum of 1% DMSO, and the plates are placed under hypoxia at <1% 02 and 5% CO2 at 37° C. for 24 hours of culture. Each compound was tested in a concentration range.
After 24 hours, the growth medium is changed and replaced by a richer medium, DMEM (DUTSCHER) at 1 g/L glucose and 2% FBS (INNOPROT) and 1% penicillin-streptomycin (DUTSCHER). These media will have been pre-equilibrated at 37° C. in advance. The cells are then returned to culture at 37° C. under 20% 02 and 5% CO2 for 22h.
After 22 hours of reoxygenation, the potential protective effect of anidulafungin or micafungin is measured by a cell viability test using calcein AM (CORNING), which is a dye substrate. The calcein AM can easily cross the cell membrane of the viable cells. The AM ester groups mask the part of the molecule that chelates calcium. Once inside the cells, the (non-fluorescent) calcein AM is hydrolyzed to (fluorescent) calcein by endogenous esterases. The resulting calcein molecule binds to calcium inside the cell and remains trapped inside the cell. These molecules emit strong green fluorescence when subjected to […] of a particular wavelength (495 nm). Since dead cells lack esterase activity, only living cells are labelled.
This cell viability test is performed in two steps. […]

CCCCCOc1ccc(-c2cc(-c3ccc(C(=O)N[C@H]4C[C@@H](O)[C@@H](O)NC(=O)[C@@H]5[C@@H](O)[C@@H](C)CN5C(=O)[C@H]([C@H](O)CC(N)=O)NC(=O)[C@H]([C@H](O)[C@@H](O)c5ccc(O)c(OS(=O)(=O)O)c5)NC(=O)[C@@H]5C[C@@H](O)CN5C(=O)[C@H]([C@@H](C)O)NC4=O)cc3)no2)cc1 [Micafungin, {5-[(1S,2S)-2-[(3S,6S,9S,11R,15S,18S,20R,21R,24S,25S,26S)-3-[(1R)-2-carbamoyl-1-hydroxyethyl]-11,20,21,25-tetrahydroxy-15-[(1R)-1-hydroxyethyl]-26-methyl-2,5,8,14,17,23-hexaoxo-18-[(4-{5-[4-(pentyloxy)phenyl]-1,2-oxazol-3-yl}benzene)amido]-1,4,7,13,16,22-hexaazatricyclo[22.3.0.0]heptacosan-6-yl]-1,2-dihydroxyethyl]-2-hydroxyphenyl}oxidanesulfonic acid] (X1-[Orn(4R-OH,5R-OH)]T[Hyp][hTyr(3S-OH,4S-OH,3'-OSO3H)][Gln(3R-OH)][Pro(3S-OH,4S-Me)]; lactam 1-C)
Globalfluo assay 1 ([Micafungin] log μM −4): 11181240 arbitrary units
Globalfluo assay 2 ([Micafungin] log μM −4): 11805530 arbitrary units
Globalfluo assay 3 ([Micafungin] log μM −4): 11095570 arbitrary units
Mean globalfluo ([Micafungin] log μM −4): 11360780 arbitrary units
Survival rate (%) ([Micafungin] log μM −4): 37%
Globalfluo assay 1 ([Micafungin] log μM −4.124939): 12113050 arbitrary units
Globalfluo assay 2 ([Micafungin] log μM −4.124939): 11168770 arbitrary units
Globalfluo assay 3 ([Micafungin] log μM −4.124939): 11691720 arbitrary units
Mean globalfluo ([Micafungin] log μM −4.124939): 11657847 arbitrary units
Survival rate (%) ([Micafungin] log μM −4.124939): 38%
Globalfluo assay 1 ([Micafungin] log μM −4.30103): 10705920 arbitrary units
Globalfluo assay 2 ([Micafungin] log μM −4.30103): 12585990 arbitrary units
Globalfluo assay 3 ([Micafungin] log μM −4.30103): 12661760 arbitrary units
Mean globalfluo ([Micafungin] log μM −4.30103): 11984557 arbitrary units
Survival rate (%) ([Micafungin] log μM −4.30103): 40%
Globalfluo assay 1 ([Micafungin] log μM −4.39794): 12034270 arbitrary units
Globalfluo assay 2 ([Micafungin] log μM −4.39794): 11904770 arbitrary units
Globalfluo assay 3 ([Micafungin] log μM −4.39794): 11704580 arbitrary units
Mean globalfluo ([Micafungin] log μM −4.39794): 11881207 arbitrary units
Survival rate (%) ([Micafungin] log μM −4.39794): 39%
Globalfluo assay 1 ([Micafungin] log μM −4.522879): 9416001 arbitrary units
Globalfluo assay 2 ([Micafungin] log μM −4.522879): 11987430 arbitrary units
Globalfluo assay 3 ([Micafungin] log μM −4.522879): 10070420 arbitrary units
Mean globalfluo ([Micafungin] log μM −4.522879): 10491284 arbitrary units
Survival rate (%) ([Micafungin] log μM −4.522879): 34%
Globalfluo assay 1 ([Micafungin] log μM −4.60206): 10458840 arbitrary units
Globalfluo assay 2 ([Micafungin] log μM −4.60206): 10594720 arbitrary units
Globalfluo assay 3 ([Micafungin] log μM −4.60206): 8636463 arbitrary units
Mean globalfluo ([Micafungin] log μM −4.60206): 9896674 arbitrary units
Survival rate (%) ([Micafungin] log μM −4.60206): 31%
Globalfluo assay 1 ([Micafungin] log μM −4.69897): 8790971 arbitrary units
Globalfluo assay 2 ([Micafungin] log μM −4.69897): 10993750 arbitrary units
Globalfluo assay 3 ([Micafungin] log μM −4.69897): 9050581 arbitrary units
Mean globalfluo ([Micafungin] log μM −4.69897): 9611767 arbitrary units
Survival rate (%) ([Micafungin] log μM −4.69897): 30%
Globalfluo assay 1 ([Micafungin] log μM −4.823909): 9039973 arbitrary units
Globalfluo assay 2 ([Micafungin] log μM −4.823909): 8208392 arbitrary units
Globalfluo assay 3 ([Micafungin] log μM −4.823909): 7686254 arbitrary units
Mean globalfluo ([Micafungin] log μM −4.823909): 8311540 arbitrary units
Survival rate (%) ([Micafungin] log μM −4.823909): 25%
Globalfluo assay 1 ([Micafungin] log μM −5): 5367938 arbitrary units
Globalfluo assay 2 ([Micafungin] log μM −5): 7594623 arbitrary units
Globalfluo assay 3 ([Micafungin] log μM −5): 5742300 arbitrary units
Mean globalfluo ([Micafungin] log μM −5): 6234954 arbitrary units
Survival rate (%) ([Micafungin] log μM −5): 16%
Globalfluo assay 1 ([Micafungin] log μM −5.09691): 5198634 arbitrary units
Globalfluo assay 2 ([Micafungin] log μM −5.09691): 5680528 arbitrary units
Globalfluo assay 3 ([Micafungin] log μM −5.09691): 4518691 arbitrary units
Mean globalfluo ([Micafungin] log μM −5.09691): 5132618 arbitrary units
Survival rate (%) ([Micafungin] log μM −5.09691): 11%
Globalfluo assay 1 ([Micafungin] log μM −5.221849): 5545222 arbitrary units
Globalfluo assay 2 ([Micafungin] log μM −5.221849): 4844574 arbitrary units
Globalfluo assay 3 ([Micafungin] log μM −5.221849): 4333143 arbitrary units
Mean globalfluo ([Micafungin] log μM −5.221849): 4907646 arbitrary units
Survival rate (%) ([Micafungin] log μM −5.221849): 10%
Globalfluo assay 1 ([Micafungin] log μM −5.39794): 3889914 arbitrary units
Globalfluo assay 2 ([Micafungin] log μM −5.39794): 3964004 arbitrary units
Globalfluo assay 3 ([Micafungin] log μM −5.39794): 4064339 arbitrary units
Mean globalfluo ([Micafungin] log μM −5.39794): 3972752 arbitrary units
Survival rate (%) ([Micafungin] log μM −5.39794): 7%
Globalfluo assay 1 ([Micafungin] log μM −5.69897): 3399775 arbitrary units
Globalfluo assay 2 ([Micafungin] log μM −5.69897): 3118863 arbitrary units
Globalfluo assay 3 ([Micafungin] log μM −5.69897): 3166056 arbitrary units
Mean globalfluo ([Micafungin] log μM −5.69897): 3228231 arbitrary units
Survival rate (%) ([Micafungin] log μM −5.69897): 4%
Globalfluo assay 1 ([Micafungin] log μM −6): 3157528 arbitrary units
Globalfluo assay 2 ([Micafungin] log μM −6): 2851345 arbitrary units
Globalfluo assay 3 ([Micafungin] log μM −6): 2667237 arbitrary units
Mean globalfluo ([Micafungin] log μM −6): 2892037 arbitrary units
Survival rate (%) ([Micafungin] log μM −6): 2%
Globalfluo assay 1 ([Micafungin] log μM −6.30103): 2192241 arbitrary units
Globalfluo assay 2 ([Micafungin] log μM −6.30103): 2496288 arbitrary units
Globalfluo assay 3 ([Micafungin] log μM −6.30103): 2306718 arbitrary units
Mean globalfluo ([Micafungin] log μM −6.30103): 2331749 arbitrary units
Survival rate (%) ([Micafungin] log μM −6.30103): 0%
Globalfluo assay 1 ([Micafungin] log μM −7): 2276775 arbitrary units
Globalfluo assay 2 ([Micafungin] log μM −7): 2276419 arbitrary units
Globalfluo assay 3 ([Micafungin] log μM −7): 1622516 arbitrary units
Mean globalfluo ([Micafungin] log μM −7): 2058570 arbitrary units
Survival rate (%) ([Micafungin] log μM −7): −1%
